In patent US9315818B2, “Plant expression constructs and methods of utilizing same” (priority 2006, dated 2016):

How the values were obtained:
[1] = test system: several fungi; conditions: PRN spraying in field tests; U.S. Pat. No. 5,698,425; cited from earlier work
[2] = test system: plant genome; assay: Southern blot for integration into the plant genome; format: in vivo, tomato; conditions: BglII-cleaved vs uncleaved DNA
Experimental: Molecular analysis—Southern analysis was carried out according to standard procedures (e.g as set forth in Sambrook, J. & Russel, D. W. Molecular Cloning, Third Edition. Cold Spring Harbor Laboratory Press, Cold Spring Harbor (2001)). Probes for Southern analysis were labeled by the PCR-DIG procedure (Roche Molecular Biochemicals, Basel, Switzerland). DIG labeled probes (TYLCV-CP—SEQ ID NO: 40) which hybridize with nucleotides 530-908 of the sequence identified by GenBank Accession No. X15656 were prepared according to the manufacturers protocol. Northern and Western analyses were carried out according to standard procedures. Probes for Northern analysis were labeled as described for the Southern blot analysis. Detection of GUS and GFP activities were performed according to published procedures [Jefferson, R. A., EMBO J. 6, 3901-3907 (1987); Blumenthal, A., Plant Science 142, 93-99 (1999)]. Chemiluminescent probes for Western blots were prepared with the SuperSignal West Pico kit (Pierce, Rockford, Ill., USA), using polyclonal antibodies against TYLCV-CP (Bioreba, Reinach, Switzerland) All probes were prepared according to the respective manufacturer's protocol. […]
Southern analysis was done without shearing, and with or without cleaving DNA with BglII. Two major bands were detected in samples from IL-60-BS, as well as TYLCV-infected plants (lanes 3-6, and lane 2 respectively of FIG. 3a). […]

[3] = test system: Bemisia tabaci; assay: Transfer of IL-60-BS by Bemisia tabaci; format: in vivo; conditions: insects fed on IL-60-BS-carrying tomato plants, transferred to healthy tomato plants; PCR
Source text: Assay for Transfer of IL-60-BS by Bemisia tabaci—Bemisia tabaci were allowed to feed on IL-60-BS-carrying tomato plants (15 insects per plant). Insects were then fed on sucrose and transferred to healthy tomato plants. DNA was extracted from both types of plants and used as a template for PCR using primers which amplify a sequence specific to IL-60 (e.g. SEQ ID NO: 16 and NO: 17) or other relevant primer pairs.
Wild TYLCV is transmitted by the whitefly, Bemisia tabaci. To test whether the viral vector is also transmitted through a viral natural transmitter, plants carrying the IL-60-BS vector were fed to B. tabaci.

[4] = test system: tomato plants; assay: Vector replication, spread, reporter expression and symptoms in tomato plants (PCR, GUS staining); format: in vivo
Experimental: Propagation of the virus-plasmid vectors and their administration to plants—E. coli cells were transformed with IL-60 (SEQ ID NO: 2), IL-60-BS (SEQ ID NO: 1), IL-60-BS-GUS and IL-60-BS-GFP and propagated under ampicillin selection; the construct was extracted using standard procedures. IL-60-BS was administered directly into plants, without mediation by Agrobacterium. The stem, or leaf petiole, of the recipient plant was punctured by a hypodermic needle. A capillary tube was inserted into the resultant hole, and approximately 2 microgram of DNA (in 100 μl of 5 mM Tris-HCl; pH 8.5) were pipetted into the capillary tube until fully soaked by the plant. For large-scale applications, samples were delivered into plants by the BIM-LAB instrument (Bio-OZ biotechnologies, Yad Mordechai, Israel).
PCR analysis—PCR analysis was carried out according to standard procedures. DNA for PCR analysis was extracted as described in Bernatzky R. and Tanksley, S. D. [Theor. Appl. Genet. 72:314-321 (1986)], from leaves positioned at least 3 leaves above the point of administration. Tomato plants carry Geminivirus sequences in their genome [Ashby, M. K. et al., Plant Mol. Biol. 35, 313-321 (1997)]. Thus, it was also necessary to ascertain that PCR products were obtained from vector templates and not from native viral infection or plant sequences. Therefore, PCR tests were carried out with primers distinguishing IL-60 from TYLCV, or spanning the junction between IL-60 and the plasmid. • (i) primers distinguishing IL-60 from TYLCV; 977 (forward): gaa ggc tga act tcg aca g (SEQ ID NO: 16), 966 (reverse): att ggg ctg ttt cca tag ggc (SEQ ID NO: 17) • (ii) primers which amplify the junction between Bluescript and IL-60; 939 (forward) aga gac acc gat tca ttt caa c (SEQ ID NO: 18); 940 (reverse) gcg gat aac aat ttc aca cag (SEQ ID NO: 19).
In order to detect the presence of plasmids carrying reporter genes, PCR was performed with primers amplifying the reporter gene inserted into IL-60-BS. • iii) GUS specific primers: 408 (forward) gaa caa cga act gaa ctg gca gac (SEQ ID NO: 25); 167 (reverse) cag cgt aag ggt aat gcg ag (SEQ ID NO: 26). • iv) GFP specific primers: 895 (forward) ggc cga att cag taa agg aga ag (SEQ ID NO: 27); 345 (reverse) tgt gtg gac agg taa tgg (SEQ ID NO: 28).
TYLCV, IL-60, IL-60-BS and reporter gene derivative plasmids were either agroinoculated or injected into tomato plants and their replication and spread was monitored with symptom observation, PCR analysis and Southern blot. The expression of viral and reporter genes was assessed using PCR, Northern and Western analysis, GUS staining and GFP fluorescence as described above in methods and materials.

Compound: O=[N+]([O-])c1c(Cl)cccc1-c1c[nH]cc1Cl [PRN, Pyrrolnitrin]
- reduction in infectivity of several fungi [1]: up to 8 fold

Compound: IL-60-BS: IL-60 with Bluescript II-KS+ plasmid inserted, interrupting rep and C4 (SEQ ID NO: 1)
- integration into the plant genome [2]: had not been integrated into the plant's genome
- transmission of vector by insects to non-carrying plants [3]: did not carry the IL-60-BS vector
- efficiency of administration into plants ([4]; direct injection): over 90%
- symptoms in injected plants ([4]; more than 64 injected tomato plants): did not present any symptom
- persistence of vector after injection ([4]; tomato plants, PCR, duration of the plants life-span): 12 months
- vector found / replication indicated by PCR, time post injection ([4]; tomato plants, leaves remote from the point of injection): 3 days

Compound: IL-60: TYLCV-derived vector (SEQ ID NO: 2) with 60-nt coat protein deletion and frame shift
- infection after agroinoculation ([4]; tomato plants agroinoculated with the multimeric form, kept until fruit set): systemic, but symptomless infection
